Tests used:
lymphoma P 388 = experiment: In vivo antitumor activity, lymphoma P 388; parameters: species or system mouse; conditions: Table IX; subcutaneous P 388 in CDF1 mice; compound 1 or 20 40 mg/kg 5/week from D5, 5 weeks; VCR 0.63 mg/kg 3/week from D5, 3 weeks
Description: 4.—In Vivo Antitumor Activity in Combination With a Cytotoxic Agent
The tests were carried out on models of:
in the presence or absence of cytotoxic agents such as cyclophosphamide, etoposide, doxorubicin or vincristine.
When the MTD value of a product was determined, its in vivo antitumor activity was characterized at doses of MTD/2, MTD/4 and MTD/8 on the model of mouse mammary adenocarcinoma HS-MXT and on the model of lymphoma P 388.
In all the examples presented below, irrespective of the model (mammary adenocarcinoma HS-MXT or lymphoma P 388), the control condition is represented by a batch of 9 mice to which is administered for 5 consecutive weeks and at a rate of 5 administrations (Monday, Tuesday, Wednesday, Thursday and Friday) per week a volume of 0.2 ml of physiological saline containing the solvent used to dissolve the various compounds of formulae (I) and (Ia) used.
i)—The survival rate of the mice
This survival rate was calculated in the form of a ratio T/C:
This ratio represents the average survival time of the median mouse from the batch of treated mice relative to the average survival time of the median mouse from the batch of control mice. Thus, a molecule induces a significant (P<0.05) increase in the survival of the animals when the index T/C exceeds 130%. Conversely, it has a toxic effect when this value of T/C is less than 70%.
4- to 6-week-old CDF1 mice are grafted with a piece of P 388 tumor (from a tumor bank maintained in the laboratory) subcutaneously into the right flank on day D0. In order to be under conditions close to clinical reality, we waited until the 5th day post-grafting (D5) before starting the treatment. The reason for this was that, after this period of time, the subcutaneous P 388 tumors are palpable.
Compound 1 is administered alone. The first injection of the product is carried out on the 5th day post-grafting (D5) at a rate of 5 injections per week (Monday, Tuesday, Wednesday, Thursday and Friday) for five consecutive weeks-and at a dose of 40 mg/kg.
Compound 20 is administered alone. […]

clonogenic cells = experiment: Clonogenic test, overall statement; type: cell-based; conditions: in words
Text: 1—Interaction (Stimulation or Inhibition of Proliferation) With the Generation of Clonogenic Cells (Clonogenic Test)
The test used is that described by Hamburger et al. (Science, 1977; 197, 461-463) and Salmon et al. (New England J. Med., 298, 1321-1327). A cell is considered clonogenic if it has the capacity to proliferate and to give rise to a cell colony. “Human tumor stem cells” are the cells which are the source of the neoplastic cells which constitute a given tumor. These tumor stem cells are responsible for the relapse processes which may be observed after surgical resection of primary tumors and are also responsible for the formation of metastases. […]
The influence of the compounds of formulae (I) and (Ia) on the growth of the cell colonies obtained by culturing, for example, the mammalian tumor lines MCF7 and MXT and the colorectal line HT-29 on the semi-liquid culture medium known as “soft agar” was measured. […]
The tumor cell lines studied are maintained in culture in 25 cm^2 falcon dishes. […] The percentage of live cells is determined after staining with trypan blue. […] After fixing for 24 hours, the formalin is evaporated off and the number of stained cell colonies, thus consisting of metabolically active cells, and whose surface area is greater than 100 μm^2, is determined using an inverted microscope. […]

Structure (SMILES) | T/C (survival) (lymphoma P 388) [%] | effect on the average number of clones of clonogenic cells relative to the reference situation (clonogenic cells)
COc1ccc(-c2cc3c(OC)cc(OC)cc3[nH]c2=O)cc1 [CRL8246, 5,7-Dimethoxy-3-(4-methoxyphenyl)-1,2-dihydro-2-quinolinone] | 120 | –
COc1ccc(-c2cc3c(OC)cc(OC)cc3n(CCC#N)c2=O)cc1 [CRL8247, 3-[5,7-Dimethoxy-3-(4-methoxyphenyl)-2-oxo-1,2-dihydro-1-quinolinyl]propanenitrile] | 125 | –
CCN(CC)C(=O)CCn1c(=O)c(-c2ccc(OC)cc2)cc2c(OC)cc(OC)cc21 [CRL8283, N,N-Diethyl-3-[5,7-dimethoxy-3-(4-methoxy-phenyl)-2-oxo-1,2-dihydro-1-quinolinyl]propanamide] | – | reduce
CCN(CC)C(=O)Cn1c(=O)c(-c2ccc(OC)cc2)cc2c(OC)cc(OC)cc21 [CRL8315, N,N-Diethyl-2-[5,7-dimethoxy-3-(4-methoxy-phenyl)-2-oxo-1,2-dihydro-1-quinolinyl]acetamide] | – | increase

From patent publication US6593342B1, “Pharmaceutical compositions comprising 2-quinolones” (Laboratoire L. Lafon, priority 1998, dated 2003)
